These results are taken from patent publication US9682061B2, “Methods of treating bacterial infections using oritavancin” (THE MEDICINES COMPANY, priority 2009, dated 2017).

Usually MIC stands for the lowest concentration found to suppress growth.

For one data set, the system named is rat serum protein. In words: Serum protein binding estimated from MIC shift, serum vs serum ultrafiltrate (rat). It counts as in vitro ADME. To be noted: from mean MICs, broth microdilution, this study. From the text: (§1) Avid binding of oritavancin (ORI) to filtration and dialysis membranes renders most protein binding methodologies unsuitable. To control for any impact of serum components on bacterial growth and antibiotic activity, MIC shifts (from arithmetic drug dilutions) and area under the inhibitory curve (AUIC) shifts (from time-kill assays) were quantified in the presence of serum (SER) compared to SER ultrafiltrate (ULTRA; free of albumin) to estimate ORI binding to serum. In this manner, the extent of reduction in oritavancin activity in serum was related to its degree of serum protein binding. The method was benchmarked using daptomycin and ceftriaxone (Lee et al., Antimicrob Agents Chemother. 35:2505-2508 (1991); Schmidt et al., Antimicrob Agents Chemother. 52:3994-4000 (2008); Yuk et al., Clin Pharmacokinet. 17:223-235 (1989); McKay et al., Evaluation of oritavancin activity in vitro in the presence of human and mouse serum, abstr P1854. Abstr. 19th European Congress of Clinical Microbiology and Infectious Diseases. European Society of Clinical Microbiology and Infectious Diseases, Basel, Switzerland, May 16, 2009).
(§2) Pooled sera from humans, mice and rats were obtained from Equitech-Bio (Kerrville, Tex.); pooled serum from beagle dogs was from Bioreclamation (Liverpool, N.Y.). ULTRA was prepared using Centricon Plus-50 ultrafilters (Millipore, Billerica, Mass.), whose molecular weight cutoff (50 kDa) excludes albumin. ORI stock solutions were prepared following CLSI M100-818 (Clinical and Laboratory Standards Institute. 2008. CLSI document M100-S18). Staphylococcus aureus ATCC 29213 was used as the test isolate at a final inoculum of ˜5×10^5 CFU/mL in both MIC and AUIC studies.
(§3) Arithmetic MICs: Broth microdilution MIC assays with Staphylococcus aureus ATCC 29213 were based on CLSI guidelines (Clinical and Laboratory Standards Institute, 2009, CLSI document M7-A7). Growth media were 95% serum:5% CAMHB and 95% serum ultrafiltrate:5% CAMHB. […] Percent binding in serum was calculated as follows: % Bound=(1−[mean MICultrafiltrate/mean MICserum]×100%

A further data set deals with human serum protein. Put plainly: Serum protein binding estimated from MIC shift, serum vs serum ultrafiltrate (human). It counts as in vitro ADME. To be noted: from mean MICs, broth microdilution, this study.
From the text: as §1, §2, §3

The next data set concerns S. aureus ATCC 29213. Put plainly: Broth microdilution MIC with arithmetic drug dilutions. To be noted: for MIC: Staphylococcus aureus, ATCC29213, mean. Type of data set: cell-based, Staphylococcus aureus. Here is the method: as §2
Arithmetic MICs: Broth microdilution MIC assays with Staphylococcus aureus ATCC 29213 were based on CLSI guidelines (Clinical and Laboratory Standards Institute, 2009, CLSI document M7-A7). Growth media were 95% serum:5% CAMHB and 95% serum ultrafiltrate:5% CAMHB. Arithmetic dilutions of oritavancin and comparators were used to increase precision of minimum inhibitory concentration (MIC) values relative to doubling dilutions. Percent binding in serum was calculated as follows: % Bound=(1−[mean MICultrafiltrate/mean MICserum]×100%

Data set [1] can be described thus: Serum protein binding from MIC shift, summary across species. It counts as in vitro ADME, human, mouse, rat, dog. To be noted: pooled serum compared with serum ultrafiltrate; serum from mouse, rat, and beagle dog; MIC shift; read-out: Serum protein binding estimates, range.
From the text: as §1, §2, §3

The next data set deals with beagle dog serum protein. Put plainly: Serum protein binding estimated from MIC shift, serum vs serum ultrafiltrate (dog). Type of data set: in vitro ADME. To be noted: from mean MICs, broth microdilution, this study.
From the text: as §1, §2, §3

Another data set has as its system human serum. To be noted: cited from earlier work.
Data set [2] in a line: Serum protein binding estimated from MIC shift, serum vs serum ultrafiltrate (mouse). Type of data set: in vitro ADME. To be noted: pooled mouse serum compared with serum ultrafiltrate; mouse serum; from mean MICs, broth microdilution; this study; read-out: % Bound (protein binding estimate) (converted).
From the text: as §1, §2, §3

In another data set the test system is mouse serum protein. The description is as above. It counts as in vitro ADME. To be noted: mouse, serum.
From the text: as §1, §2, §3

For the next data set, the system named is plasma protein. To be noted: across tested species; Shaw et al. 2008; cited from earlier work.
Where [3] appears, read: 95% dog serum + 5% CAMHB, read-out: MIC, Serum.
Setting [4] is: 95% dog serum ultrafiltrate + 5% CAMHB, read-out: MIC, Ultrafiltrate.
[5] abbreviates: 95% human serum + 5% CAMHB, read-out: MIC, Serum.
Setting [6] is: 95% human serum ultrafiltrate + 5% CAMHB, read-out: MIC, Ultrafiltrate.
Setting [7] is: 95% mouse serum + 5% CAMHB, read-out: MIC, Serum.
The mark [8] stands for this setting: 95% mouse serum ultrafiltrate + 5% CAMHB, read-out: MIC, Ultrafiltrate.
Where [9] appears, read: 95% rat serum + 5% CAMHB, read-out: MIC, Serum.
[10] abbreviates: 95% rat serum ultrafiltrate + 5% CAMHB, read-out: MIC, Ultrafiltrate.
Setting [11] is: cation-adjusted Mueller-Hinton broth, CLSI conditions, Dog, read-out: MIC, CAMHB.
Where [12] appears, read: cation-adjusted Mueller-Hinton broth, CLSI conditions, Human, read-out: MIC, CAMHB.
Where [13] appears, read: cation-adjusted Mueller-Hinton broth, CLSI conditions, Mouse, read-out: MIC, CAMHB.
[14] abbreviates: cation-adjusted Mueller-Hinton broth, CLSI conditions, Rat, read-out: MIC, CAMHB.
[15] abbreviates: mean MIC in 95% dog serum / mean MIC in 95% dog serum ultrafiltrate.
Where [16] appears, read: mean MIC in 95% human serum / mean MIC in 95% human serum ultrafiltrate.
Where [17] appears, read: mean MIC in 95% mouse serum / mean MIC in 95% mouse serum ultrafiltrate.
Setting [18] is: mean MIC in 95% rat serum / mean MIC in 95% rat serum ultrafiltrate.

Values after ≈ are worked out from the molar mass of the structure shown. Like-named read-outs stand apart in the source and are kept apart here.

On to `CO/N=C(\C(=O)N[C@@H]1C(=O)N2C(C(=O)O)=C(CSc3nc(=O)c(=O)[nH]n3C)CS[C@H]12)c1csc(N)n1` [Ceftriaxone], for which the “% Bound (protein binding estimate)” value in the data set with rat serum protein was 34.0%; with human serum protein, 92.6%; in the data set on beagle dog serum protein it was 20.9%. Besides, the MIC with S. aureus ATCC 29213 (setting [3]) was determined as 1.38 µg/mL; in the data set with S. aureus ATCC 29213 (setting [4]), 1.09 µg/mL; with S. aureus ATCC 29213 (setting [5]), 38.8 µg/mL; with S. aureus ATCC 29213 (setting [6]), 2.88 µg/mL; with S. aureus ATCC 29213 (setting [7]) it was 6 µg/mL; in the data set on S. aureus ATCC 29213 (setting [8]) it was 3.75 µg/mL. Also, the MIC was determined as 5.88 µg/mL in the data set with S. aureus ATCC 29213 (setting [9]); 3.88 µg/mL in the data set with S. aureus ATCC 29213 (setting [10]); 5.25 µg/mL (≈ 9.47 µM) in the data set on S. aureus ATCC 29213 (setting [11]); 4.88 µg/mL (≈ 8.8 µM) with S. aureus ATCC 29213 (setting [12]); 5 µg/mL (≈ 9.02 µM) with S. aureus ATCC 29213 (setting [13]); 3.5 µg/mL (≈ 6.31 µM) with S. aureus ATCC 29213 (setting [14]). In addition, the “Mean Fold MIC Increase” value in the data set on S. aureus ATCC 29213 (setting [15]) is 1.3 fold; with S. aureus ATCC 29213 (setting [16]), 13.5 fold; in the data set on S. aureus ATCC 29213 (setting [17]) it was 1.6 fold; with S. aureus ATCC 29213 (setting [18]) it was 1.5 fold. Moreover, the values for the fraction unbound in [1] and in [2] were 0.625 to 0.791 and 0.625, respectively. Also, the “Binding estimate from in vitro microdialysis” value in the data set with human serum is 76.8%.
With `CCCCCCCCCC(=O)N[C@@H](Cc1c[nH]c2ccccc12)C(=O)N[C@H](CC(N)=O)C(=O)N[C@@H](CC(=O)O)C(=O)N[C@@H]1C(=O)NCC(=O)N[C@@H](CCCN)C(=O)N[C@@H](CC(=O)O)C(=O)N[C@H](C)C(=O)N[C@@H](CC(=O)O)C(=O)NCC(=O)N[C@H](CO)C(=O)N[C@@H]([C@H](C)CC(=O)O)C(=O)N[C@@H](CC(=O)c2ccccc2N)C(=O)O[C@@H]1C` [Daptomycin], the “% Bound (protein binding estimate)” value in the data set on rat serum protein is 65.6%; with human serum protein, 82.9%; in the data set on beagle dog serum protein, 74.5%; in the data set on mouse serum protein, 76.0%. In addition, the MIC in the data set with S. aureus ATCC 29213 (setting [3]) was 2.5 µg/mL; in the data set with S. aureus ATCC 29213 (setting [4]) it was 0.638 µg/mL; with S. aureus ATCC 29213 (setting [5]), 3 µg/mL; in the data set on S. aureus ATCC 29213 (setting [6]), 0.513 µg/mL; in the data set with S. aureus ATCC 29213 (setting [7]), 12.5 µg/mL; in the data set on S. aureus ATCC 29213 (setting [8]) it was 3 µg/mL. The MIC in the data set on S. aureus ATCC 29213 (setting [9]) turned out to be 1.56 µg/mL; in the data set with S. aureus ATCC 29213 (setting [10]), 0.538 µg/mL; in the data set on S. aureus ATCC 29213 (setting [11]), 1 µg/mL (≈ 0.617 µM); with S. aureus ATCC 29213 (setting [12]) it was 0.975 µg/mL (≈ 0.602 µM); with S. aureus ATCC 29213 (setting [13]) it was 0.975 µg/mL (≈ 0.602 µM); in the data set on S. aureus ATCC 29213 (setting [14]), 1.25 µg/mL (≈ 0.771 µM). In addition, the “Mean Fold MIC Increase” value with S. aureus ATCC 29213 (setting [15]) turned out to be 3.9 fold; in the data set on S. aureus ATCC 29213 (setting [16]), 5.8 fold; in the data set with S. aureus ATCC 29213 (setting [17]), 4.2 fold; with S. aureus ATCC 29213 (setting [18]), 2.9 fold.
On to `CCCCCCCCCCNCCN[C@@]1(C)C[C@H](O[C@H]2[C@H](Oc3c4cc5cc3Oc3ccc(cc3Cl)[C@@H](O)[C@@H](NC(=O)[C@@H](CC(C)C)NC)C(=O)N[C@@H](CC(N)=O)C(=O)N[C@H]5C(=O)N[C@H]3C(=O)N[C@H](C(=O)N[C@H](C(=O)O)c5cc(O)c(CNCP(=O)(O)O)c(O)c5-c5cc3ccc5O)[C@H](O)c3ccc(c(Cl)c3)O4)O[C@H](CO)[C@@H](O)[C@@H]2O)O[C@@H](C)[C@H]1O` [telavancin], for which the Plasma protein binding entry with plasma protein is given as “approximately 90%”.
